Literature values as cited in patent US10881750B2, “Sentinel lymph node marker capable of multi-mode imaging” (NATIONAL CANCER CENTER, priority 2010, dated 2021).

Settings: 18 breast cancer patients, clinical trials (Kitai et al., Breast Cancer 2005)

Structure (SMILES): CC1(C)C(/C=C/C=C/C=C/C=C2\N(CCCCS(=O)(=O)O)c3ccc4ccccc4c3C2(C)C)=[N+](CCCCS(=O)(=O)[O-])c2ccc3ccccc3c21 [indocyanine green]
- safety in clinical use: safe to use
